Experimental data published in patent US5658925A, “Aminobenzoic acid derivatives” (Eisai Co., Ltd., priority 1993, dated 1997).

Experiments:
[1] = test system: cisplatin-induced vomiting; test: Activity against cisplatin-induced vomiting of beagle; format: in vivo; settings: through the vein of forefoot, one hour after 3 mg/kg cisplatin, 5-hour period
Method: [Experimental Example 2] Activity against cisplatin-induced vomiting of beagle
Beagles weighing 7 to 12 kg were used. 3 mg/kg of cisplatin (a product of Sigma) (1 ml/kg of physiological saline) was administered to each beagle through the vein of one of its forefeet. One hour after the administration, physiological saline (0.2 ml/kg) was administered to a control group of beagles and a solution of a test compound in physiological saline was administered to a test group of beagles, each through the vein of the other forefoot. The frequency of vomiting observed over a 5-hour period from the administration of cisplatin was recorded and the inhibitory ratio of the test compound was calculated according to the following formula.

serotonin 4 = target: T1, serotonin 4 (Rattus norvegicus, UniProt Q62758); test: Effect of relaxing the contraction of muscular layer of esophageal mucosa of rat by stimulation with carbachol (activity of serotonin 4 as agonist); format: cell-based; settings: 50% relaxation of maximum contraction caused by 1 μM carbachol, cumulative addition, 37° C.; read-out: Effect of relaxing the muscular layer of esophageal mucosa of rat EC50
T1 construct: The esophagus of a rat was extirpated and freed from the outer tunica propria to obtain the muscular layer of mucosa; from tissue; host or cells: muscular layer of mucosa of rat esophagus
Method: This experiment was made according to the method of Baxter et al. [see Naunyn-Schmiedeberg's Arch. […] The esophagus of a rat was extirpated and freed from the outer tunica propria to obtain the muscular layer of mucosa. […] A load of 0.5 g was applied to each sample and the reaction was recorded isometrically. 1 μM of carbachol was added to each sample to cause contraction, followed by the cumulative addition thereto of a solution of a test compound. The effect of the test compound was determined as the ratio (%) of relaxation based on the maximum contraction caused by carbachol.

serotonin 3 = target: T2, serotonin 3 (Cavia porcellus, UniProt O70212); test: Antagonism against 2-methyl-serotonin-induced contraction of ileum (serotonin 3 antagonism); format: cell-based, guinea pig (Hartley male); settings: guinea pig nonterminal ileum, vs 2-methylserotonin, 30 minutes with test compound, 37° C.; read-out: pA2 (converted)
T2 construct: from tissue; host or cells: nonterminal ileum of Hartley male guinea pig
T2 sequence (O70212 20-490): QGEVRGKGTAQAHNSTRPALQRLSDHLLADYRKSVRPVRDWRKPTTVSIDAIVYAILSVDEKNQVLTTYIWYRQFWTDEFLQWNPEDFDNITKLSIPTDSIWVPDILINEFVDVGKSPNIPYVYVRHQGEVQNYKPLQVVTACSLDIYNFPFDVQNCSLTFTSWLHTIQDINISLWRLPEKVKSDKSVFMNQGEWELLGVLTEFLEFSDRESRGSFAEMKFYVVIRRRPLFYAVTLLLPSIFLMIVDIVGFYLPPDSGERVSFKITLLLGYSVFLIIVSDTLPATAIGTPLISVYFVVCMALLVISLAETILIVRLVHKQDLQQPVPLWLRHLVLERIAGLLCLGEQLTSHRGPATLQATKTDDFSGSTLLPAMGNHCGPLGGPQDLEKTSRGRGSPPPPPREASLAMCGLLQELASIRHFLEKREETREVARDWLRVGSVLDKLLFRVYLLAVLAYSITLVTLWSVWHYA
Method: [Experimental Example 1] Antagonism against 2-methyl-serotonin-induced contraction of ileum (serotonin 3 antagonism)
This experiment was made according to the method of Sanger et al. [see Eur. J. Pharmacol., 159, 113-124 (1989)]. The nonterminal ileum of a Hartley male guinea pig was suspended in the Krebs solution (37° C.) by applying a load of 0.5 g, and a gaseous mixture comprising 95% of oxygen and 5% of carbon dioxide was passed through the solution. The contraction of the ileum was isometrically determined. After allowing the ileum to stand for one or more hours for stabilization, a solution of a test compound was added to the solution, and after 30 minutes, 2-methylserotonin was noncumulatively added. The pA2 value was calculated from the rightward shift of the dose-response curve of the 2-methylserotonin-induced contraction caused by the test compound according to the method of Rossum et al. [see Arch. Int. Pharmacodyn. 143, 299(1963)]. BRL 24924 (Renzapride) was used as a control in this experiment.
The structural formula of BRL 24924 is as follows: [drawing 19]

[2] = test system: gastric emptying function; test: Activity for increasing gastric emptying function; format: in vivo, rat (Fischer male); settings: oral, one hour before test food, *: minimum effective dose
Method: [Experimental Example 3] Activity for increasing gastric emptying function
This experiment was made according to the method of Decktor et al. [see Eur. J. Pharmacol., 147, 313-316 (1988)]. Fischer male rats (weight: 160 to 180 g) were fasted for 18 hours before 3 ml of a test food comprising methylcellulose, beef bouillon, casein, sugar and corn starch was orally administered to each rat. One hour after the administration, the stomach was extirpated from each rat. The gastric emptying ratio was calculated from the weight of the test food remaining in the stomach. The percentage increment of the gastric emptying function was determined by comparing the gastric emptying ratio of a medicated rat with that of a control rat. Each test compound (5 ml/kg) was orally administered one hour before the administration of the test food. BRL 24924 was used as a control in this experiment.

T1 sequence (Q62758 whole entry): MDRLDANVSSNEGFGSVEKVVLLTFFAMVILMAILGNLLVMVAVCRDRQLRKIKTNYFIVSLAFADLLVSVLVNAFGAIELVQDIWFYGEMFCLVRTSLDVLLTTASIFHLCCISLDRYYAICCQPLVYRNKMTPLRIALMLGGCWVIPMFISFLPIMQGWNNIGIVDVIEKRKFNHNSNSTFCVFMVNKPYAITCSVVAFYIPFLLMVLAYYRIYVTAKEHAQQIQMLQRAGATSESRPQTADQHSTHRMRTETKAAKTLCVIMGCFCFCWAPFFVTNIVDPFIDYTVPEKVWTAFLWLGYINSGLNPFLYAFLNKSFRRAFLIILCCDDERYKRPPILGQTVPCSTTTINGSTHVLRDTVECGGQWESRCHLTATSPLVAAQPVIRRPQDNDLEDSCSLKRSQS

Structure (SMILES)	Inhibitory ratio against cisplatin-induced vomiting (%) ([1]; 0.1 mg/kg)	EC50 (serotonin 4) [nM]	Kb (serotonin 3) [nM]	Percentage increment of gastric emptying function (%) ([2]; 0.01 mg/kg)	Percentage increment of gastric emptying function (%) ([2]; 0.03 mg/kg)	Percentage increment of gastric emptying function (%) ([2]; 0.1 mg/kg)	Percentage increment of gastric emptying function (%) ([2]; 0.3 mg/kg)	Inhibitory ratio against cisplatin-induced vomiting (%) ([1]; 0.03 mg/kg)
CC#C[C@H](C)Oc1cc(N)c(Cl)cc1C(=O)NC1CCN2CCOC1C2 (single isomer, unassigned) [20 fraction 1]	22	60	63.1	3.9	8.9	22.9	11.5	–
CC#C[C@H](C)Oc1cc(N)c(Cl)cc1C(=O)NC1CCN2CCOC1C2 (single isomer, unassigned) [20 fraction 2]	24	33	12.6	–	14.0	23.3	21.8	14
